From BindingDB's records for PubMed 2338642 (Marion Merrell Dow, 1990)
Several values for one entry are separate records, joined by “and”; a condition that tells them apart may be missing. Equal values may be shown once.

Target: Voltage-dependent L-type calcium channel subunit alpha-1C (Rattus norvegicus, UniProt P22002)
Sequence (P22002 whole entry): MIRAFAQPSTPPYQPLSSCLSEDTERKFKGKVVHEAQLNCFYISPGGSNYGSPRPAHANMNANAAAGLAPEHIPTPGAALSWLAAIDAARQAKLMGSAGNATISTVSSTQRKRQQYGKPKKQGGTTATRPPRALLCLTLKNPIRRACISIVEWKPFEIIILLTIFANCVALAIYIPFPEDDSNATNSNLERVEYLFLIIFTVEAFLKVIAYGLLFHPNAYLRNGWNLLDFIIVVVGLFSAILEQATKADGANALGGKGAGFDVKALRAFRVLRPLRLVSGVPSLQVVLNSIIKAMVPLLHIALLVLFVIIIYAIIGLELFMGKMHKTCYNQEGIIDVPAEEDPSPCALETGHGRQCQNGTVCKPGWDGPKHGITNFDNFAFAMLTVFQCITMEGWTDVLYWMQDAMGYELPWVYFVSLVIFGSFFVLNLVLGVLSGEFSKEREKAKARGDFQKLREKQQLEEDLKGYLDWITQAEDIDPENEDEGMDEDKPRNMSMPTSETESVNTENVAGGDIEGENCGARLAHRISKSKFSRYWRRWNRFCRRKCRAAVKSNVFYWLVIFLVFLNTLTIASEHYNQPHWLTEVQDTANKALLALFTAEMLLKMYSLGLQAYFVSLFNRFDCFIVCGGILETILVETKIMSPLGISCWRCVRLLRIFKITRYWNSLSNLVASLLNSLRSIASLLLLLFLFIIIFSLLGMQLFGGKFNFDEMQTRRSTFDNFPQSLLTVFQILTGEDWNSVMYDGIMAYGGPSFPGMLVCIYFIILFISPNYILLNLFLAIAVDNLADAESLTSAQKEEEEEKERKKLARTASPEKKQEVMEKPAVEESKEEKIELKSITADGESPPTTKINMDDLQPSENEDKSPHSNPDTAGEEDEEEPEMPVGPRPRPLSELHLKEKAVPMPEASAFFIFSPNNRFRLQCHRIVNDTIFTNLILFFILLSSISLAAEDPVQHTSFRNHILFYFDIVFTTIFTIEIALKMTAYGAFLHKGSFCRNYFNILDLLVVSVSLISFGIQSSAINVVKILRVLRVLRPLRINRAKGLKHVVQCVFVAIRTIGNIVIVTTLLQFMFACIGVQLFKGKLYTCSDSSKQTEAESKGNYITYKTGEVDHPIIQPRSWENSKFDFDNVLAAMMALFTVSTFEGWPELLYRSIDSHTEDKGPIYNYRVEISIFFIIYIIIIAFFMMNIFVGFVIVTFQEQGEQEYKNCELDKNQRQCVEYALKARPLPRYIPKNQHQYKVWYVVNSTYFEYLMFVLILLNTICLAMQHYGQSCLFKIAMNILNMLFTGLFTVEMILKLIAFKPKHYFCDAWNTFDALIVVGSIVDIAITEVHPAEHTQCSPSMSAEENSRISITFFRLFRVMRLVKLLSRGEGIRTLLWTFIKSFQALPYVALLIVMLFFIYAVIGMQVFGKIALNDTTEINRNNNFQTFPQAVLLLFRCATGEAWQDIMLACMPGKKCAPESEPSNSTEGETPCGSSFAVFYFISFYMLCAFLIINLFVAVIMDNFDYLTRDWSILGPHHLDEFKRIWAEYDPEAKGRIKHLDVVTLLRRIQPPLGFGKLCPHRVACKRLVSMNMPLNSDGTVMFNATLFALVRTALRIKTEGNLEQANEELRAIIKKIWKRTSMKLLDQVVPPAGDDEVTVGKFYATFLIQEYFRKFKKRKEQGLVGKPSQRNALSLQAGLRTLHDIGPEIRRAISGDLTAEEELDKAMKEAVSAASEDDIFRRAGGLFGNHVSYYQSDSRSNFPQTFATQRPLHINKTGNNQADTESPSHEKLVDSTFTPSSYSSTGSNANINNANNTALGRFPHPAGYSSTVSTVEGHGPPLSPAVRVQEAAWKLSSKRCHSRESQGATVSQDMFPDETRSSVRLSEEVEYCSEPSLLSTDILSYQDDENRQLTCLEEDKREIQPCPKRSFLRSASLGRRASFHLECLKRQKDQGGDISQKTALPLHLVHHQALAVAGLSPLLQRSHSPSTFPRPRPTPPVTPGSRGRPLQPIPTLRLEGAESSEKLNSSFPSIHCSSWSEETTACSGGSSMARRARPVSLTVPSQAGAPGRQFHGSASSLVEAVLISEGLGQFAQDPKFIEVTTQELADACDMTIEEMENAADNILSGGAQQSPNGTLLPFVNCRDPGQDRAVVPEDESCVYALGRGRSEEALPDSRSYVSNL

SMILES | Ki
COc1ccc([C@@H]2Sc3cc(Cl)ccc3N(CCN(C)C)C(=O)[C@@H]2OC(C)=O)cc1 [CAS_96128-92-6] | > 10 µM
COc1cc2nc(N3CCN(C(=O)c4ccco4)CC3)nc(N)c2cc1OC [[3H]-Minipress] | 6 µM and > 10 µM
COc1ccc([C@H]2Sc3cc(Cl)ccc3N(CCN(C)C)C(=O)[C@H]2OC(C)=O)cc1 [l-TA-3090] | > 10 µM
